Experimental findings from PMC7071076, “Antibacterial Activity and Pharmacokinetic Profile of a Promising Antibacterial Agent: 22-(2-Amino-phenylsulfanyl)-22-Deoxypleuromutilin” (Molecules, 2020) are described below.

As a reminder, the LD50 is the dose at which mortality reaches 50%. The low end stands for a more toxic substance, the high end for a less toxic substance.

Values after ≈ are worked out from the molar mass of the structure shown. Some results are limits rather than exact numbers.

One data set deals with E. coli ATCC 25922. Nature of the data set: MIC testing (broth dilution, 96-well plate). The following applies: Escherichia coli, ATCC25922. Format: cell-based. The protocol:
(§1) The MIC of amphenmulin against MRSA, Escherichia coli, Salmonella typhimurium, Enterococcus faecalis, and Enterococcus faecium were determined using tiamulin as controls. MIC values were measured by the method of previous work. Staphylococcus aureus ATCC 29213 was used as the quality control bacteria, and the quality control range was referred to the Clinical and Laboratory Standards Institute (CLSI). The bacteria solution was diluted to ~10^6 CFU/mL with Mueller–Hinton (MH) broth for MRSA, Escherichia coli and Salmonella typhimurium while Trypticase Soy Broth for Enterococcus faecalis and Enterococcus faecium. Drugs were dissolved in an aqueous solution of N, N-dimethylformamide (DMF) at a concentration of 2560 µg/mL, and then diluted with broth to prepare working solution (1280 µg/mL). The drug susceptibility testing was performed in 96-well plate. A total of 20 µL of working solution was added into column 1 and well mixed as a 10-fold dilution, following which Serial 2-fold dilutions were prepared to provide concentration ranges of 128–0.0078 µg/mL. Blank broth (no cultures) and bacteria solution (drugs replaced by blank solvent) were set as drug-free controls. Each 96-well plate was cultured at 37 °C for 24 h. The MIC value is the lowest concentration of amphenmulin which inhibits the visible growth of bacteria. The experiment was repeated three times.
(In general: Broth dilution looks for growth in wells or tubes with falling amounts of substance.)

Another data set concerns E. faecalis ATCC 29212. Nature of the data set: MIC testing (broth dilution, 96-well plate). Format: cell-based. The following applies: Enterococcus faecalis, ATCC29212. The protocol: as §1
The subject of another data set is E. faecium ATCC 35667. Nature of the data set: MIC testing (broth dilution, 96-well plate). Format: cell-based. The following applies: Enterococcus faecium, ATCC35667. The protocol:
as §1

In another data set the test system is S. aureus ATCC 29213. Nature of the data set: MIC testing (broth dilution, 96-well plate). The class given is cell-based. The following applies: Staphylococcus aureus, ATCC29213. The protocol:
as §1

Data set [1] concerns S. typhimurium ATCC 14028. Description: MIC testing (broth dilution, 96-well plate). The class given is cell-based. The following applies: Salmonella enterica. The protocol:
as §1

A further data set concerns MRSA. Description: MIC against MRSA (summary over strains). The following applies: Staphylococcus aureus, range over strains, read-out: minimal inhibitory concentration. The class given is cell-based. The protocol: as §1
In data set [2] the test system is MRSA ATCC 43300. Description: Postantibiotic effect (PAE). The class given is cell-based, Staphylococcus aureus. The protocol: The PAE was determined with previously methods. MRSA in logarithmic phase was diluted to 10^6 CFU/mL using MH broth as the inoculum. […] The group in which the drug was replaced by 0.9% saline was served as the control. All the samples were incubated at 37 °C for 1 and 2 h. At the end of incubation, the drug was removed by 1000-fold dilution with MH broth which was preheated at 37 °C. After well mixing, the broth was further cultured at 37 °C. 100 µL culture solution was extracted at different time intervals (0, 1, 2, 4, 6, and 8 h). Following a 10-fold dilution, colonies were counted after 20 h of incubation. The kinetic curve was established with the logarithm of the colony number as the ordinate and the time as the abscissa. The PAE was presented in hour and calculated by the equation PAE = TA − TC [40]. TA was defined as the culture time required for the number of MRSA to up to 1 log CFU/mL after the drug removal, and TC was the culture time required for the control group.

A short description of data set [3]: Acute oral toxicity study. The following applies: both sexes, KM, mouse, in vivo, 5000 mg/kg; mice, oral (gavage), single dose. The protocol: (§2) The acute toxicity test mainly referred to the previous reports with some modifications. Seven male and seven female KM mice in SPF grade were used for this study. Amphenmulin was formulated in DMSO and given in a single- dose at 5000 mg/kg by gavage, while the control group were given DMSO without drug. […] The median lethal dose (LD50) was calculated by modified Karber method on day 15. The experiment was repeated twice.

A further data set deals with KM mice. Description: Acute oral toxicity study. The following applies: mouse, in vivo, 5000 mg/kg. The protocol: as §2
The test system of data set [4] is MRSA ATCC 43300. Nature of the data set: MRSA wound infection model: wound size. The class given is in vivo, mice. The settings on record: after treatment for three days; 100 μL drug (3 mg/mL) on the wound. The protocol: (§3) Six weeks SPF-ICR female mice were used for this study. The Experimental model, inducted of inflammatory in mice by skin excision, was established referring to existing methods with some alterations. The mice were anesthetized with the intravenous injection of 1% sodium pentobarbital. After their hair on the back was shaved, the mice were anesthetized and the back skin was perforated with a biopsy perforator at a depth of fascia injury. The inoculum (50 μL), containing 10^9 CFU/mL of the indicated microorganism (MRSA ATCC 43300), was applied on the wound for three times at 30 min intervals. 100 μL drug (3 mg/mL) was administrated on the wound at 1 h after inoculation for three consecutive days. A total of 100 μL blank matrix was given to the infected control group and the non-infected group in the same way. The wound was wrapped with sterile gauze. During the treatment, all mice were kept individually and free to eat and drink.
The wounds were examined on day 1 and days 3 after treatment. The area of wound were measured according to previous reports with some modifications. In each group, six mice were taken out and anesthetized to take photos and measure the size of the wound as the results.

The test system of data set [5] is MRSA ATCC 43300. Nature of the data set: MRSA wound infection model: wound bacterial burden. Format: in vivo, mice. The protocol:
as §3
At the end of the examination, mice were anesthetized and killed. Tissue samples, reaching to the muscle membrane, were removed from the middle of the wound surface and homogenized in 0.9% saline. Serially diluted aliquots of homogenate were cultured on high-salt mannitol agar plate at 37 °C for 24 h. The log of the colony number was used for statistical analysis.

A further data set relates to IL-6. Description: MRSA wound infection model: serum cytokine ELISA. Format: in vivo, mice. The settings on record: three days after treatment (method: 24 h), p < 0.05. The protocol: as §3
(§4) After administration for 24 h, blood samples were collected from the ocular venous plexus and were prepared to serum samples as previously described. The contents of IL-6, TNF-α, and MCP-1 in serum were detected using ELISA kits according to the instruction. All ELISA kits were purchased from Shanghai Enzyme-linked Biotechnology Co., Ltd. (Shanghai, China).
In general terms: In an ELISA, binding on a coated surface is turned into a signal by an enzyme label.

In another data set the test system is TNF-α. Description: MRSA wound infection model: serum cytokine ELISA. Format: in vivo, mice. The following applies: three days after treatment (method: 24 h), p < 0.05. The protocol:
as §3, §4

`C=C[C@]1(C)C[C@@H](OC(=O)CSc2ccccc2N)[C@]2(C)[C@H](C)CC[C@]3(CCC(=O)[C@H]32)[C@@H](C)[C@@H]1O` [Amphenmulin, 22-(2-amino-phenylsulfanyl)-22-deoxypleuromutilin]: the MIC in the data set with E. coli ATCC 25922 is more than 128 µg/mL; in the data set on E. faecalis ATCC 29212 it was more than 128 µg/mL; against E. faecium ATCC 35667, 0.125 µg/mL (≈ 0.257 µM); against S. aureus ATCC 29213, 0.0156 µg/mL (≈ 0.0321 µM); in [1], more than 128 µg/mL; in the data set on MRSA, 0.0156 to 8 µg/mL (≈ 0.0321 to 16.5 µM). Besides, the PAE in the data set on MRSA ATCC 43300 [2] (1× MIC, exposure for 1 h) was found to be 0.71 h; in the data set with MRSA ATCC 43300 [2] (1× MIC, exposure for 2 h), 1.35 h; with MRSA ATCC 43300 [2] (4× MIC, exposure for 1 h) it was 1.78 h; with MRSA ATCC 43300 [2] (4× MIC, exposure for 2 h), 2.83 h. Besides, the LD50 at 14 days in data set [3] was more than 5000 mg/kg. Besides, the mortality result with KM mice is given as “No mice died”. Also, the abnormal symptoms result in the data set on KM mice (po) is “increase in the heart rate, excitement of some mice and inappetence”. This compound registered a wound area with MRSA ATCC 43300 [4] of 0.47 ± 0.09 cm^2. Further, the “number of bacteria in wound tissue vs infected group” value in the data set on MRSA ATCC 43300 [5] (one day after treatment, p < 0.05) is on record as “significant decrease”. Further, the “number of bacteria in wound tissue” value in the data set on MRSA ATCC 43300 [5] (three days after treatment, 100 μL drug (3 mg/mL) on the wound) amounted to 4.47 ± 0.66 log10 CFU/mL. In addition, in the data set with IL-6, the “IL-6 in the serum vs infection group” value is recorded as “significantly decreased”. In the data set on TNF-α, the “TNF-α in the serum vs infection group” value is listed as “significantly decreased”.
